Common to all, as to test: NCI tumour cell line growth inhibition, 48 h
Test [1] deals with RPMI-8226 leukemia.
For test [2], the system named is HL-60(TB) leukemia.
Test [3] deals with SK-OV-3 ovarian.
For test [4], the system named is UO-31 renal.
The test system of test [5] is IGROV1 ovarian.
In test [6] the test system is NCI-H226 lung.
The subject of test [7] is SR leukemia.
Test [8] deals with NCI/ADR-RES ovarian.
Test [9] deals with T-47D breast.
For test [10], the system named is DU-145 prostate.

“And” between values parts separate entries of the source, which are not always exact repeats. Equal entries are not always repeated.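 Compound exposure: 48 hours, 5 concentrations, 96-well plates. GI50: concentration for 50% inhibition of growth. TGI is the concentration that stops growth completely.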

As for `C#CCNC(=O)ON1C(=O)CCC1=O`, the TGI in test [1], in test [2], in [3], in test [4] and in test [5] was greater than 100 µM in each case.
As for `CN(C)/C=N\c1ccnc(=O)[nH]1`, the TGI in test [1], in [2], in test [3], in test [6], in test [4] and in test [5] was greater than 100 µM throughout.
`N#C/C(=C\c1cccc(O)c1O)C(N)=O`: the TGI in test [1] was 65.6 µM; in [2], 31.1 µM; in test [3], 93.7 µM; in [6], 88 µM; in test [4], 85.3 µM; in [5] it was greater than 100 µM.
On to `Cc1c(C(=O)/C=C/C=C/c2ccccc2)[n+](=O)c2ccccc2n1[O-]`, for which the TGI was greater than 100 µM in test [2]; greater than 100 µM in test [3]; greater than 100 µM in test [6]; greater than 100 µM in [4]; 65.5 µM in test [5].
As to `Cl/C(N=Nc1ccccc1)=N/Nc1ccccc1`, the TGI in test [2], in test [3], in test [6], in [7] and in [5] was greater than 100 µM each time.
As for `CCc1cccc(C)c1N1C(=O)C(=O)C(c2nc3ccccc3o2)C(=O)C1=O`, the TGI in test [1], in test [2], in test [3], in [6], in test [4] and in test [7] was greater than 100 µM each time. For the same compound, the TGI in test [5] is greater than 100 µM.
Turning to `COc1ccc(OC(C(=O)O)C(C)C)c2c1CCCC2=O` (configuration not stated), the TGI in test [1], in [2], in test [3], in [4] and in test [5] was greater than 100 µM throughout.
On to `O=C1OC(c2ccccc2)=N/C1=C\c1ccc(Oc2ccc(Cl)c(Cl)c2)cc1`, for which the TGI is 56.9 µM in test [2], 78.8 µM in test [4], 57 µM in [7] and greater than 100 µM in test [5].
As for `Cc1c2c(cc3c1C(=O)C(=O)C1=C3OC[C@@H]1C)C(C)(C)CCC2`, the TGI in [2] was found to be 26.9 µM; in test [3], 82.8 µM; in test [4], 46.1 µM; in test [7] it was 50.2 µM; in test [5], 49.8 µM.
`CCN1CCN(c2cc(C)nc(N(CCCNc3ccnc4cc(Cl)ccc34)Cc3ccc4c(c3)OCO4)n2)CC1`: the GI50 in test [1] is 1.8 µM; in [2], 1.9 µM; in test [3] it was 14.8 µM; in test [6], 32.8 µM; in [8], 3.22 µM; in test [4], 1.51 µM. The values for the GI50 in [5] and in test [9] were 3.46 µM and 2.26 µM, respectively. The TGI in test [1] was 4.49 µM; in test [2], 4 µM; in test [3], 34.8 µM; in test [6], greater than 100 µM; in test [8] it was 58.5 µM; in [4], 3.08 µM. For the same compound, the TGI in [5] came out at 16.7 µM; in test [9] it was 4.88 µM.
On to `O=C(O)c1cc(=O)c2c([nH]c3ccccc32)s1`, for which the TGI in [1], in test [2], in [3], in test [4] and in [5] was greater than 100 µM throughout.
Regarding `[O-]c1ccccc1C=Nc1ccc2c(c1)CCC2.[O-]c1ccccc1C=Nc1ccc2c(c1)CCC2.[O]=[U+2]=[O]`, the GI50 in test [1] was 16.5 µM; in [2], 9.43 µM; in [3], greater than 100 µM; in test [6], greater than 100 µM; in [4], 31.2 µM; in [5], 41 µM. Besides, the TGI in test [1], in test [2], in test [3], in [6], in test [4] and in [5] was greater than 100 µM throughout.
Regarding `O=c1nc(-c2ccccc2)cc(CC(O)c2ccc(Cl)c(Cl)c2)[nH]1` (configuration not stated), the TGI is 76 µM in test [2]; greater than 100 µM in [3]; greater than 100 µM in test [6]; 99.3 µM in [4]; greater than 100 µM in [5].
For the compound `COc1ccc(Nc2nc3ccccc3c3occc23)cc1`, the GI50 in test [1] was 8.35 µM; in test [2], 10.3 µM; in test [3], 0.005 µM; in test [10] it was 6.65 µM; in [8] it was 9.32 µM; in test [4], 12.3 µM. Also, the GI50 was 0.663 µM in test [7] and 37.4 µM in test [5]. Moreover, the TGI in [1] is 22.6 µM; in [2] it was greater than 50 µM; in test [3], 9.95 µM; in test [10], 13.1 µM; in test [8] it was 18.7 µM; in [4], greater than 50 µM. The TGI in test [7] and in test [5] was greater than 50 µM each time.
Regarding `C[Si](C)(C)C(CCCCSc1ccccc1)(Sc1ccccc1)Sc1ccccc1`, the TGI in test [1], in test [2], in test [3], in [4] and in [7] was greater than 100 µM throughout.
For `C#CCNC(=S)N/N=C(\C)c1ccccn1`, the GI50 is 0.201 µM in test [1]; 0.084 µM in test [2]; 3 µM in test [3]; 0.404 µM in test [10]; 0.406 µM in test [6]; 0.333 µM in [4]. Further, the GI50 in [7] was 0.328 µM; in [5], 0.0522 µM; in test [9] it was 0.0933 µM. Further, the TGI was 1.7 µM in [1]; 0.36 µM in test [2]; greater than 100 µM in test [3]; greater than 59.3 µM in [10]; 3.33 µM in [6]; greater than 100 µM in [4]. Moreover, the TGI is 3.4 µM in test [7], greater than 100 µM in test [5] and greater than 100 µM in [9].
Take `CCc1ccccc1NC(=O)/C=C/c1ccccc1`: the TGI in test [1], in test [3], in test [10], in test [6], in test [7] and in [9] was greater than 100 µM each time.
Take `COC(=O)CCC12CCC(=O)C1[C@@H](C(=O)OC)C[C@H]2C(=O)OC` (some centres not stated): the TGI in [1], in test [2], in [3], in test [6], in test [4] and in test [5] was greater than 100 µM each time.
In the case of `Cc1ccc(S(=O)(=O)N=NC=C2c3ccccc3N(O)c3ccccc32)cc1`, the TGI came to 3.68 µM in test [1]; 4.62 µM in test [2]; 27.9 µM in test [3]; 29 µM in test [6]; 27.1 µM in test [4]; 27.1 µM in test [5].
Take `Cc1nc2ccc(Br)cc2c(=O)n1-c1ccc(NC2OCC(O)C(O)C2O)cc1` (configuration not stated): the GI50 in test [2] is 34.9 µM and 73.1 µM; in test [3], greater than 100 µM; in test [8], 41.9 µM and > 100 µM; in [4], 35.8 µM and > 100 µM; in test [7], 25 µM and 61 µM. Also, the TGI in [2], in [3], in [10], in test [6], in [8] and in test [4] was greater than 100 µM throughout. The TGI was 59.7 µM and > 100 µM in test [7]; greater than 100 µM in test [5].
Turning to `CNc1ccc2ncccc2c1[N+](=O)[O-]`, the TGI in test [1], in test [2], in test [6], in test [4], in test [7] and in test [5] was greater than 100 µM each time.
As to `NNc1cnn(-c2ccccc2)c(=O)c1Cl`, the TGI in test [1], in test [2], in test [3], in [6], in test [4] and in test [7] was greater than 100 µM in each case. This compound also came in with a TGI in test [5] greater than 100 µM.
With `CCOC(=O)CN(Cn1cncn1)Cn1cncn1`, the TGI in [1] is greater than 100 µM; in test [2], greater than 100 µM; in [3], greater than 100 µM; in test [6] it was 79.2 µM; in test [4], greater than 100 µM; in test [5] it was greater than 100 µM.
As to `COC(=O)C1C(=O)CC2CCCCC21` (configuration not stated), the TGI in test [1], in [2], in test [3], in test [6], in test [4] and in [7] was greater than 100 µM throughout. Moreover, the TGI in [5] was greater than 100 µM.
`N/C(=N\NS(=O)(=O)c1ccccc1)Oc1ccc(Br)cc1Br`: the TGI in test [1], in test [2], in [3], in [6], in test [4] and in test [7] was greater than 100 µM in each case. In test [5], this compound yielded a TGI greater than 100 µM.
For `CC(C)(O)/C=C/C(=O)[C@](C)(O)[C@H]1[C@H](O)C[C@@]2(C)[C@@H]3CC=C4[C@@H](C[C@H](O)C(=O)C4(C)C)[C@]3(C)C(=O)C[C@]12C`, the GI50 in test [1] is 0.0666 µM; in test [3], 0.566 µM; in test [6], 0.174 µM; in [4], 0.206 µM; in test [7] it was 0.39 µM; in test [5], 0.211 µM. Also, the TGI is 0.915 µM and 0.824 µM in test [1]; 0.687 µM and 1.68 µM in test [2]; 0.977 µM and 4.71 µM in test [3]; 0.642 µM and 0.913 µM in test [6]; 0.396 µM and 0.519 µM in [4]; 5.05 µM in test [7]. Also, the TGI in [5] is 0.479 µM and 1.22 µM.
Take `Cc1ccc(Oc2ccccc2N)cc1`: the TGI is greater than 100 µM in test [1]; 45 µM in [2]; greater than 100 µM in test [3]; 44.9 µM in [4]; greater than 100 µM in test [7]; greater than 100 µM in test [5].
Turning to `O=C(C#Cc1ccccc1)N1c2ccccc2CC1c1c[nH]c2ccccc12` (configuration not stated), the TGI was 43.2 µM in test [1]; 36.2 µM in test [2]; 51 µM in test [3]; 25.8 µM in test [6]; greater than 100 µM in [4]; 45.3 µM in [7]. In [5], this compound yielded a TGI of 25.3 µM.
For `O=C1C(=O)N(c2ccc(Cl)cc2)C(=O)C(=O)C1c1nc2ccccc2s1`, the TGI in test [1], in [3], in test [6], in test [4] and in test [5] was greater than 100 µM each time.
As for `COC(=O)C12CC(NC(=O)c3csc([C@@H](C[C@H](C(C)C)N(C)C(=O)[C@@H](NC(=O)[C@H]4CCCCN4C)C4CC4)OC(C)=O)n3)(C1)C2`, the GI50 is 0.00674 µM in test [1]; 0.00243 µM in [2]; 0.0735 µM in test [3]; 0.0154 µM in test [10]; 0.582 µM in [6]; 4.69 µM in test [8]. In addition, the GI50 in test [4] was 0.614 µM; in test [7] it was 0.00193 µM; in test [5] it was 0.0126 µM. The TGI is greater than 16.7 µM in [1]; 0.00876 µM in test [2]; greater than 16.7 µM in test [3]; greater than 16.7 µM in test [10]; greater than 16.7 µM in test [6]; greater than 16.7 µM in [8]. The TGI in test [4], in [7] and in test [5] was greater than 16.7 µM each time.
As to `O=c1cccccc1NCCCCCCCNc1cccccc1=O`, the TGI in test [1] is 55.1 µM; in test [2], 30 µM; in test [3] it was greater than 100 µM; in [6] it was greater than 100 µM; in test [4], 80.3 µM; in [7], 89.8 µM. The compound further showed a TGI in test [5] greater than 100 µM.
Consider `COc1ccc(-c2cc(C(=O)Nc3cc(C(F)(F)F)cc(C(F)(F)F)c3)c3ccccc3n2)cc1`, for which the TGI is greater than 100 µM in [1]; greater than 100 µM in test [2]; 46.9 µM in test [6]; greater than 100 µM in [4]; 38.5 µM in test [7]; 44.9 µM in [5].
With `COC(=O)C1=C(CS(=O)c2ccc([N+](=O)[O-])cc2[N+](=O)[O-])C2C=CC1C2` (configuration not stated), the TGI is greater than 100 µM in test [1]; 37.2 µM in test [2]; greater than 100 µM in [3]; 98.4 µM in test [6]; 45.9 µM in test [4]; greater than 100 µM in [5].

These data come from PubChem BioAssay (NCI).
